Results taken from patent publication US20230012570A1, “BICYCLIC COMPOUND USED AS SELECTIVE ANDROGEN RECEPTOR MODULATOR” (MEDSHINE DISCOVERY INC., priority 2019, published 2023).
Like-named read-outs stand apart in the source and are kept apart here.

Experiments:
[1] = Pharmacokinetic test in male SD rats, intravenous and intragastric administration, plasma LC-MS/MS; type: in vivo; settings: rat; for AUC(0-t): read-out: Curve area (0-t) AUC0-last; for half-life: read-out: Half-life T1/2 (converted)
Text: Experimental Embodiment 2: Pharmacokinetic Test of the Compounds of the Present Disclosure
Male SD rats were used as test animals, and LC-MS/MS method was used to determine the drug concentrations in plasma of rats at different time after intravenous and intragastric administration of compound 1A, compound 3A and compound 8A. To study the pharmacokinetic behavior of the compounds in rats and to evaluate their pharmacokinetic characteristics.
2.1 Test Drugs: Compound 1A, Compound 3A and Compound 8A
2.2 Test animals: 12 healthy adult male SD rats, divided into 6 groups with 2 rats in each group. The animal was purchased from Shanghai Sippr-BK laboratory animal Co. Ltd., and the animal production license number was SOCK (Shanghai) 2013-0016.
An appropriate amount of sample was weighed, and appropriate amounts of DMSO, polyethylene glycol-15 hydroxystearate and water were added in turn according to the volume ratio of 10:10:80, and the clarified state of 0.2 mg/mL was reached after stirring and sonication for intravenous administration.
An appropriate amount of sample was weighed and dissolved in 5% Tween 80+90% polyethylene glycol 400+5% polyvinylpyrrolidone K30 solution, and the clarified state of 0.5 mg/mL was reached after stirring and sonication for intragastric administration.
12 male SD rats were divided into 6 groups, and after fasting overnight, groups 1-3 were administered intravenously with a volume of 5 mL/kg; groups 4-6 were administered by gavage with a volume of 10 mL/kg.
After compound 1A, compound 3A and compound 8A were intravenously administered to SD rats, 40 μL of blood was collected at 0.0833, 0.25, 0.5, 1, 2, 4, 8 and 24 hours, respectively, and placed in a test tube containing 2 μL of EDTA-K2. After compound 1A and compound 3A were administered by gavage, 40 μL of blood was collected at 0.25, 0.5, 1, 2, 4, 8 and 24 hours, respectively, and placed in a test tube containing 2 μL of EDTA-K2. The tubes were centrifuged at 4000 rpm for 15 minutes to separate the plasma and stored at −60° C. Animals were allowed to eat 2 hours after administration.
The content of the test compounds in the plasma of rats after intravenous and intragastric administration was determined by LC-MS/MS method. The linear range of the method was 2.00-6000 nmol/L; plasma samples were analyzed after acetonitrile precipitation protein treatment.

CYP1A2 = biological target: T1, CYP1A2 (Homo sapiens, UniProt P05177); assay: Human liver microsomal CYP inhibition experiment, CYP1A2; type: in vitro ADME
T1 construct: Mixed human liver microsomes (HLM) were purchased from Corning Inc; tissue Corning Inc. or XenoTech, LLC. or other suppliers; host or cells: pooled human liver microsomes
T1 sequence (P05177 1-516): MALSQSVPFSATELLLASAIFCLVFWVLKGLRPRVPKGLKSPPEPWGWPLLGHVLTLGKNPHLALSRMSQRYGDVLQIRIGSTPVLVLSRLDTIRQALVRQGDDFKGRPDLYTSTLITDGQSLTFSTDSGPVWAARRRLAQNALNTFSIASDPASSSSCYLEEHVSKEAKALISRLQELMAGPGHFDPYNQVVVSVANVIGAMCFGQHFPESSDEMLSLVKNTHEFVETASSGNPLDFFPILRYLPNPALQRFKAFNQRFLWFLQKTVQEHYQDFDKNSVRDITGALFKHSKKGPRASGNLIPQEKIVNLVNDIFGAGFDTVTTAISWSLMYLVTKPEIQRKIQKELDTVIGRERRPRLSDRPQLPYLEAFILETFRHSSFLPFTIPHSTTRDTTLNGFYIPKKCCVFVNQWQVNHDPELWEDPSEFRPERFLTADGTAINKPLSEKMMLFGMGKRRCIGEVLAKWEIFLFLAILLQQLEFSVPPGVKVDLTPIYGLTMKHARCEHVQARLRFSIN
Experimental: (§1) Experiment Embodiment 4: Human Liver Microsomal CYP Inhibition Experiment
(§2) The inhibitory effects of the test compound 3A and VK5211 on the activities of human liver microsomal cytochrome P450 isozymes (CYP1A2, CYP2C9, CYP2C19, CYP2D6 and CYP3A4) were determined.
(§3) Mixed human liver microsomes (HLM) were purchased from Corning Inc. (Steuben, New York, USA) or XenoTech, LLC. (Lenexa, Kans., USA) or other suppliers, and were stored at a temperature below −60° C. before use.
(§4) First, the test compound (10.0 mM) was gradient diluted to prepare working solution (100×final concentration), and the concentrations of the working solution were: 5.00, 1.50, 0.500, 0.150, 0.0500, 0.0150, 0.00500 mM, and a working solution of each positive inhibitor of P450 isozymes (CYP1A2, CYP2C9, CYP2C19, CYP2D6, and CYP3A4) and a specific substrate mixture thereof (5 in 1) were prepared at the same time; human liver microsomes stored in a refrigerator at a temperature lower than −60° C. were put on ice to thaw, and when all the human liver microsomes were dissolved, the microsomes were diluted with potassium phosphate buffer (PB) to prepare a working solution of a certain concentration (0.253 mg/mL). […] The concentration of metabolites produced by the probe substrate in the sample was determined by liquid chromatography-tandem mass spectrometry (LC-MS/MS) method. […]

CYP2C19 = biological target: T2, CYP2C19 (Homo sapiens, UniProt P33261); assay: Human liver microsomal CYP inhibition experiment, CYP2C19; type: in vitro ADME
T2 construct: Mixed human liver microsomes (HLM) were purchased from Corning Inc; tissue Corning Inc. or XenoTech, LLC. or other suppliers; host or cells: pooled human liver microsomes
T2 sequence (P33261 whole entry): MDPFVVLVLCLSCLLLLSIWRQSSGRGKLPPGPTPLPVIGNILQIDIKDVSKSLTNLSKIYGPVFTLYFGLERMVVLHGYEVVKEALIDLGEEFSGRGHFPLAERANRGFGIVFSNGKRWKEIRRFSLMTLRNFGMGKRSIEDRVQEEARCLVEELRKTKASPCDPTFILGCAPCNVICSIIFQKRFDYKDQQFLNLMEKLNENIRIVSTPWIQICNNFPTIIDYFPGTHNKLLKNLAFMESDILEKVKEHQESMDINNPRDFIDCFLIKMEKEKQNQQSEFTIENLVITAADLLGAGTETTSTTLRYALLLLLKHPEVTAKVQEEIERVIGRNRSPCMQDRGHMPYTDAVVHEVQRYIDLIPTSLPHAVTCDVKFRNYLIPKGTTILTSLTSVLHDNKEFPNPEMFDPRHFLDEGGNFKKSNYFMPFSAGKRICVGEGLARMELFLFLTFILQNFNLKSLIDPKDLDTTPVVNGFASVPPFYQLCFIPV
Experimental: as §1, §2, §3, §4

[2] = intravenous administration, dose 1.1 (1A), 0.69 (3A), 0.716 (8A) mg/kg
[3] = po, intragastric administration, dose 4.92 (1A), 4.2 (3A), 4.59 (8A) mg/kg

N#Cc1ccc(N2CC3CC3C2C(O)C(F)(F)F)cc1Cl (single isomer, unassigned) [Compound 3A]
Vd ([1]; intravenous administration, dose 1.1 (1A), 0.69 (3A), 0.716 (8A) mg/kg, read-out: Apparent volume of distribution Vdss): 1.83 L/kg | clearance ([1]; intravenous administration, dose 1.1 (1A), 0.69 (3A), 0.716 (8A) mg/kg, read-out: Clearance rate Cl): 28.6 mL/min/kg | AUC(0-inf) ([1]; intravenous administration, dose 1.1 (1A), 0.69 (3A), 0.716 (8A) mg/kg, read-out: Curve area (0-inf) AUC0-inf): 1.29 µM·h | AUC(0-t) [1, 2]: 1.28 µM·h | half-life [1, 2]: 1.35 h | bioavailability ([1]; oral, intragastric vs intravenous administration, read-out: Bioavailability F): 16% | Cmax ([1]; po, intragastric administration, dose 4.92 (1A), 4.2 (3A), 4.59 (8A) mg/kg, read-out: Blood drug concentration Cmax): 262 nM | AUC(0-t) [1, 3]: 1.25 µM·h | half-life [1, 3]: 1.8 h | Tmax ([1]; po, intragastric administration, dose 4.92 (1A), 4.2 (3A), 4.59 (8A) mg/kg, read-out: Peak time Tmax): 3 h | IC50 (CYP1A2): 29.3 µM | IC50 (CYP2C19): 12.1 µM
